From patent US20260317367A1, “SALTS INCLUDING CRYSTALLINE SALTS OF 25-HYDROXY-CHOLEST-5-EN-3-SULFATE AND METHODS FOR PREPARING SAME” (Durect Corporation, priority 2022, published 2026)
“Also recorded” adds a separate entry of the source. Counter-ions that a name gives are not always drawn.

Tests used:
Type in all cases: physicochemical
[1] = Overall rank order of powder flowability (angle of repose and Hausner ratio); details: for Powder flowability, overall (in words): angle of repose and compressibility index/Hausner ratio combined; for Angle of Repose Rank Order / Hausner Ratio Rank Order / Overall Rank Order (Total Score): lower is better flow; for Overall Rank Order (Total Score): sum of both ranks
From the text: Table C5 was generated by adding the relative rank order of the 25HC3S salts for angle of repose and Hausner ratio results, and creating an Over All Rank Order of the salts powder flowability. The salts with the lower overall rank order score had better powder flowability.

[2] = Solubility of 25HC3S salts after one day at room temperature (HPLC, as free acid); details: one day; for Solubility in methanol (in words): MeOH
In short: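 25HC3S salts were shaken with excess solid at room temperature for one day in organic solvents or aqueous/biorelevant media (FaSSIF, FeSSIF, FaSSGF), then centrifuged. Supernatants were assayed by HPLC against a free-acid standard curve (11 μg/mL to 1.5 mg/mL); values are mg/mL free acid, LOD 0.0007 mg/mL.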

[3] = Appearance (color, clumping, flowability) of stored 25HC3S salts
[4] = Solid-state chemical stability of 25HC3S salts at 2-8° C., 60° C. and 80° C. (HPLC assay and degradation products); details: for % Impurities, Total / % Impurities, 25-HC: ND = Not Detected; for % Impurities, 25-HC: 25-Hydroxy-Cholesterol; for % Recovery: vs 2-8° C.
In short: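 Crystalline 25HC3S salts (~25 mg powder per vial) stored at 2-8° C. or 80° C., pulled at 3 and 6 weeks; some 3-week 2-8° C. vials moved to 60° C. for 1 week. Dissolved in 100% methanol (sonication/vortexing, centrifugation or dilution), then HPLC against 25HC3S sodium standards (0.75-1.25 mg/mL) for assay and degradants.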

[5] = Hausner ratio and compressibility index of 25HC3S salts; details: for Compressibility Index: Table C3 heads this index in %
In short: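 Powder poured into a 5 mL graduated cylinder to about 5.0 mL (Vo), tapped 200 then 100 more times on a hard surface; final volume Vf recorded after 300 taps. Compressibility index and Hausner ratio calculated from Vo and Vf; flow character classed per USP <1174>.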

[6] = Final pH of the solubility sample solutions in aqueous media; details: for pH of the solubility sample, 0.9% Sodium Chloride: 0.9% sodium chloride (blank 5.8); for pH of the solubility sample, 5% Dextrose: 5% dextrose (blank 4.7); for pH of the solubility sample, FaSSGF: FaSSGF (blank 1.5, 1.6); for pH of the solubility sample, FaSSIF: FaSSIF (blank 6.5, 6.5); for pH of the solubility sample, FeSSIF: FeSSIF (blank 4.9, 5.0); for pH of the solubility sample, Water: water (blank 6.3)
In short: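 25HC3S salts shaken as excess-solid suspensions in aqueous media at room temperature (210 motions/min) for one day. Aliquots centrifuged at 12000 rpm for 12–15 min; clear supernatant assayed undiluted by HPLC.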

[7] = listed as 25HC3S t-butylammonium
[8] = 2-8° C., 3 wk, listed as 25HC3S t-butylammonium
[9] = 80° C., 3 wk, listed as 25HC3S t-butylammonium
[10] = 2-8° C., 5 wk, listed as 25HC3S t-butylammonium
[11] = 80° C., 5 wk, listed as 25HC3S t-butylammonium
[12] = 80° C., 5 wk, 50400 min, listed as 25HC3S t-butylammonium
[13] = room temperature, listed as crystalline 25HC3S magnesium
[14] = 2-8° C., 3 wk, listed as 25HC3S magnesium
[15] = 80° C., 3 wk, listed as 25HC3S magnesium
[16] = 60° C., 1 week, listed as 25HC3S Magnesium
[17] = 80° C., 3 weeks, listed as 25HC3S Magnesium

CC(CCCC(C)(C)O)C1CCC2C3CC=C4CC(OS(=O)(=O)O)CCC4(C)C3CCC12C (centres unmarked) [Salt #12]
Powder flowability, overall (in words) ([1]; listed as t-butylammonium): poorer flowability | Angle of Repose Rank Order [1, 7]: 13 | Hausner Ratio Rank Order [1, 7]: 8 | Overall Rank Order (Total Score) [1, 7]: 21 | Solubility in FaSSGF (in words) ([2]; room temperature): high solubility | Solubility in FaSSIF (in words) ([2]; room temperature): high solubility | Solubility in FaSSIF (in words) ([2]; room temperature, listed as crystalline 25HC3S t-butylammonium): relatively high solubility | Solubility in FeSSIF (in words) ([2]; FeSSIF, room temperature): high solubility | Appearance [3, 8]: White, free flowing powder with clumping | Appearance ([3]; 2-8° C., 5 wk): White, free flowing powder with clumping | Appearance [3, 9]: White, free flowing powder with clumping | Appearance ([3]; 80° C., 5 wk): White, free flowing powder with clumping | Assay ([4]; 2-8° C., 3 wk, 30240 min, listed as 25HC3S t-butylammonium): 99.8 % w/w | % Impurities, Total [4, 8]: 1.5% | Assay ([4]; 2-8° C., 5 wk, 50400 min, listed as 25HC3S t-butylammonium): 106.2 % w/w | % Impurities, Total [4, 10]: 1.5% | Overall physical and chemical stability (in words) ([4]; 2-8° C., 60° C., 80° C.): physically and chemically stable | Overall physical and chemical stability (in words) ([4]; 2-8° C., 60° C., 80° C., listed as t-butylammonium): relatively stable | % Impurities, 25-HC [4, 8]: 0.3% | % Impurities, 25-HC [4, 10]: 0.3% | % Impurities, 25-HC [4, 9]: 0.3% | % Impurities, 25-HC [4, 11]: 0.2% | Stressed stability at 80° C. (in words) ([4]; 80° C.): good, stressed stability | % Recovery ([4]; 80° C., 3 wk, 30240 min, listed as 25HC3S t-butylammonium, 30240 min): 99.4% | Assay ([4]; 80° C., 3 wk, 30240 min, listed as 25HC3S t-butylammonium): 99.2 % w/w | % Impurities, Total [4, 9]: 1.7% | Physical and chemical solid-state stability (comments) ([4]; 80° C., 5 weeks): Stable after 5 weeks at 80 °C physically and chemically. | % Recovery, 2-8° C./5 wk vs 80° C./5 wk [4, 12]: 98.8% | Assay [4, 12]: 104.9 % w/w | % Impurities, Total [4, 11]: 1.6% | Stability after 5 weeks at 80° C. (in words) ([4]; solid state, 80° C., 5 weeks): stable | Compressibility Index [5, 7]: 33 | Hausner Ratio [5, 7]: 1.48 | pH of the solubility sample, 0.9% Sodium Chloride [6, 7]: 8.4 | pH of the solubility sample, 5% Dextrose [6, 7]: 7.2 | pH of the solubility sample, FaSSGF [6]: 1.6 | pH of the solubility sample, FaSSIF [6, 7]: 6.5 | pH of the solubility sample, FeSSIF [6]: 5.0 | pH of the solubility sample, Water [6, 7]: 8.5

CC(CCCC(C)(C)O)C1CCC2C3CC=C4CC(OS(=O)(=O)O)CCC4(C)C3CCC12C (centres unmarked) [Salt #13]
Powder flowability, overall (in words) ([1]; listed as magnesium): poorer flowability | Angle of Repose Rank Order ([1]; listed as 25HC3S magnesium): 7 | Hausner Ratio Rank Order ([1]; listed as 25HC3S magnesium): 14 | Overall Rank Order (Total Score) ([1]; listed as 25HC3S magnesium): 21 | Solubility in ethanol (in words) ([2]; EtOH, room temperature): did not reach saturation | Solubility in FaSSGF (in words) [2, 13]: low solubility | Solubility in FaSSGF ([2]; Fasted State Simulated Gastric Fluid, pH 1.6, room temperature, as free acid, LOD 0.0007 mg/mL): no solubilized drug was detected | Solubility in methanol (in words) ([2]; room temperature): did not reach saturation | Solubility in methanol (in words) [2, 13]: relatively high solubility | Solubility in saline / 0.9% sodium chloride (in words) ([2]; saline, room temperature, listed as crystalline 25HC3S magnesium): low solubility | Appearance [3, 14]: White, free flowing powder, no clumping | Appearance ([3]; 60° C., 1 wk (after 3 weeks at 2-8° C.), listed as 25HC3S magnesium): Brown, melted material stuck to bottom | Appearance after 3 weeks at 80° C. ([3]; 80° C., 3 weeks): completely burned | Appearance [3, 15]: Dark brown, melted material stuck to | Assay ([4]; 2-8° C., 3 wk, 30240 min, listed as 25HC3S magnesium): 90.8 % w/w | % Impurities, Total [4, 14]: 1.6% | Overall physical and chemical stability (in words) ([4]; 2-8° C., 60° C., 80° C.): least physically and chemically stable | Overall physical and chemical stability (in words) ([4]; 2-8° C., 60° C., 80° C., listed as magnesium): least stable | % Impurities, 25-HC [4, 14]: 0.3% | Physical and chemical solid-state stability (comments) [4, 16]: Totally decomposed after 1 week at 60 °C | dissolution of decomposed samples in diluent / degradants observed (comments) [4, 16]: decomposed samples at 60 °C after 1 week did not dissolve in the diluent,; also recorded: therefore, no degradants were observed. However, the decomposed | Assay ([4]; 60° C., 1 wk (after 3 weeks at 2-8° C.), 10080 min, listed as 25HC3S magnesium, 10080 min): 0.0 % w/w | % Recovery of 2-8° C./3 wk vs 60° C./1 wk ([4]; 60° C., 1 wk, 10080 min, listed as 25HC3S magnesium): 0.0% | Physical and chemical solid-state stability (comments) [4, 17]: Totally decomposed after 1 week at 60 °C and after 3 weeks at 80 °C | dissolution of decomposed samples in diluent / degradants observed (comments) [4, 17]: samples at 80 °C after 3 weeks may have dissolved slightly in the diluent,; also recorded: therefore, degradation products were observed | % Recovery ([4]; 80° C., 3 wk, 30240 min, listed as 25HC3S magnesium, 30240 min): 0.0% | Assay ([4]; 80° C., 3 wk, 30240 min, listed as 25HC3S magnesium): 0.0 % w/w | % Impurities, Total [4, 15]: 100% | Stability after 1 week at 60° C. (in words) ([4]; solid state, 60° C., 1 week (after 3 weeks at 2-8° C.)): totally decomposed | Stability after 3 weeks at 80° C. (in words) ([4]; solid state, 80° C., 3 weeks): totally decomposed | Compressibility Index ([5]; listed as 25HC3S magnesium): 36 | Hausner Ratio ([5]; listed as 25HC3S magnesium): 1.56 | pH of the solubility sample, 0.9% Sodium Chloride ([6]; listed as 25HC3S magnesium): 8.3 | pH of the solubility sample, 5% Dextrose ([6]; listed as 25HC3S magnesium): 7.1 | pH of the solubility sample, FaSSGF [6]: 1.6 | pH of the solubility sample, FaSSIF ([6]; listed as 25HC3S magnesium): 6.5 | pH of the solubility sample, FeSSIF ([6]; listed as 25HC3S magnesium): 4.9 | pH of the solubility sample, Water ([6]; listed as 25HC3S magnesium): 8.7
